Legend:
HCT116 cell line = test: Anti-proliferative activity, Alamar Blue assay; format: cell-based; conditions: HCT-116, human colon cancer cell line HCT116, 72 hours with compound, read-out: IC50 values against the HCT116 cell line
Procedure: The anti-proliferative activities of compounds of the invention can be determined by measuring the ability of the compounds to inhibition of cell growth in a number of cell lines such as the human colon cancer cell line HCT116. Inhibition of cell growth is measured using the Alamar Blue assay (Nociari, M. M, Shalev, A., Benias, P., Russo, C. Journal of Immunological Methods 1998, 213, 157-167). The method is based on the ability of viable cells to reduce resazurin to its fluorescent product resorufin. For each proliferation assay cells are plated onto 96 well plates and allowed to recover for 16 hours prior to the addition of inhibitor compounds for a further 72 hours. At the end of the incubation period 10% (v/v) Alamar Blue is added and incubated for a further 6 hours prior to determination of fluorescent product at […]. In the case of the non-proliferating cell assay cells are maintained at confluence for 96 hour prior to the addition of inhibitor compounds for a further 72 hours. The number of viable cells is determined by Alamar Blue assay as before. Cell lines can be obtained from the ECACC (European Collection of cell Cultures).

[1] = target: T1, Human Hsp90α N-terminal domain (Homo sapiens, UniProt P07900); test: Isothermal titration calorimetry (ITC); format: binding; conditions: pH 7.4
T1 construct: purification of the Human Hsp90α N-terminal domain were performed according to published methods; made in house
Procedure: The ability of the compounds of the invention to bind to human Hsp90 proteins was determined using isothermal titration calorimetry.
Isothermal titration calorimetry (ITC) experiments were performed with a VP-ITC titration calorimeter (Microcal Inc., Northampton, Mass., USA). […] All solutions were filtered and degassed prior to a titration being carried out. The enthalpy change resulting from each injection of ligand was obtained through integration of the calorimetric signal. Data were analysed using Origin 7.0 (Microcal Software Inc., Northampton, Mass.). Heats of dilution were estimated using the final injections of each individual titration and subtracted before data fitting. Different ITC experimental formats were employed in order to obtain compound dissociation constants (Kd's) over a wide range of affinities. […] In this type of experiment the stoichiometry parameter (N) was locked at 1 for data fitting.

Compound	IC50 (HCT116 cell line)	Kd [1]
CC(C)c1cc(C(=O)N2CCOCC2)ccc1O [Example 20, (4-Hydroxy-3-isopropyl-phenyl)-morpholin-4-yl-methanone]		< 1 µM
CC(C)c1cc(C(=O)N2CCOC(CO)C2)c(O)cc1O (stereo not shown) [Example 55, (2,4-dihydroxy-5-isopropyl-phenyl)-(2-hydroxymethyl-morpholin-4yl)-methanone]	< 10 µM	< 1 µM
CCN(C(=O)c1cc(C(C)C)c(O)cc1O)c1ccc(F)cc1 [Example 71, N-ethyl-N-(4-fluoro-phenyl)-2,4-dihydroxy-5-isopropyl-benzamide]	< 10 µM	
CC(C)c1cc(C(=O)N2CC[C@@H](O)C2)c(O)cc1O (stereo in doubt) [Example 61, (2,4-dihydroxy-5-isopropyl-phenyl)-(3-hydroxy-pyrrolidin-1yl)-methanone]	< 10 µM	
CC(C)c1cc(C(=O)N2CCC(CCO)CC2)c(O)cc1O [Example 57]	< 10 µM	< 1 µM
CNC(=O)CN(C(=O)c1cc(C(C)C)c(O)cc1O)c1ccc(F)cc1 [Example 62, N-(4-fluoro-phenyl)-2,4-dihydroxy-5-isopropyl-N-methylcarbamoylmethyl-benzamide]	< 10 µM	
CC(C)c1cc(C(=O)N2CCN(CCN(C)C)CC2)c(O)cc1O [Example 56, (2,4-dihydroxy-5-isopropyl-phenyl)-[4-(2-dimethylamino-ethyl)-piperazin-1-yl]-methanone]	< 10 µM	< 1 µM
CC(C)c1cc(C(=O)N(C)c2ccc(CN3CCOCC3)cc2)c(O)cc1O [Example 64, 2,4-dihydroxy-5-isopropyl-N-methyl-N-(4-morpholin-4-yl-methyl-phenyl)-benzamide]	< 10 µM	
CC(C)c1cc(C(=O)N2CCN(C(=O)OC(C)(C)C)CC2)c(O)cc1O [Example 69, 4-(2,4-dihydroxy-5-isopropyl-benzoyl)-piperazine-1-carboxylic acidtert-butyl ester]	< 10 µM	
CC(C)c1cc(C(=O)N(c2ccc(F)cc2)C2CCOCC2)c(O)cc1O [Example 73, N-(4-fluoro-phenyl)-2,4-dihydroxy-5-isopropyl-N-(tetrahydro-pyran-4-yl)-benzamide]	< 10 µM	< 1 µM
CC(C)c1cc(C(=O)N2CCS(=O)(=O)CC2)c(O)cc1O [Example 68, (2,4-dihydroxy-5-isopropyl-phenyl)-(1,1-dioxo-1lambda*6*-thiomorpholin-4-yl)-methanone]	< 10 µM	
CC(C)c1cc(C(=O)N2CCOCC2)c(O)cc1O [Example 29, (2,4-Dihydroxy-5-isopropyl-phenyl)-morpholin-4-yl-methanone]		< 1 µM
CC1CN(C(=O)c2cc(C(C)C)c(O)cc2O)CC(C)O1 (stereo not shown) [Example 59, (2,4-dihydroxy-5-isopropyl-phenyl)-(2,6-dimethyl-morpholin-4-yl)-methanone]	< 10 µM	
CNC(=O)CN(C(=O)c1cc(C(C)C)c(O)cc1O)c1ccc(CN2CCOCC2)cc1 [Example 63, 2,4-dihydroxy-5-isopropyl-N-methylcarbamoylmethyl-N-(4-morpholin-4-ylmethyl-phenyl)-benzamide]	< 10 µM	

Further lines, results first:

IC50 (HCT116 cell line)	Kd [1]	Compound
< 10 µM		CCOC(=O)CC1CCN(C(=O)c2cc(C(C)C)c(O)cc2O)CC1 [Example 60, [1-(2,4-dihydroxy-5-isopropyl-benzoyl)-piperidin-4-yl)-acetic acidethyl ester]
< 10 µM		CC(C)c1cc(C(=O)N(CCC#N)c2ccc(F)cc2)c(O)cc1O [Example 72, N-(2-cyano-ethyl)-N-(4-fluoro-phenyl)-2,4-dihydroxy-5-isopropyl-benzamide]
< 10 µM	< 1 µM	CC(C)(C)c1cc(C(=O)N2CCOCC2)c(O)cc1O [Example 54, (5-tert-Butyl-2,4-dihydroxy-phenyl)-morpholin-4-yl-methanone]
< 10 µM		CC(C)c1cc(C(=O)N2CCN(C)CC2)c(O)cc1O [Example 66, (2,4-dihydroxy-5-isopropyl-phenyl)-(4-methyl-piperazin-1-yl)-methanone]
< 10 µM		CC(C)c1cc(C(=O)N(C)c2ccc(F)cc2)c(O)cc1O [Example 70, N-(4-fluoro-phenyl)-2,4-dihydroxy-5-isopropyl-N-methyl-benzamide]
< 10 µM	< 1 µM	CC(C)c1cc(C(=O)N(Cc2ccccc2)c2ccc(CN3CCOCC3)cc2)c(O)cc1O [Example 65, N-benzyl-2,4-dihydroxy-5-isopropyl-N-(4-morpholin-4-ylmethyl-phenyl)-benzamide]
< 10 µM		CC(C)(C)c1cc(C(=O)N2CCC(O)(c3ccccc3)CC2)ccc1O [Example 37, (3-tert-Butyl-4-hydroxy-phenyl)-(4-hydroxy-4-phenyl-piperidin-1-yl)-methanone]
< 10 µM		CC(C)c1cc(C(=O)N2CCC(CO)CC2)c(O)cc1O [Example 58, (2,4-dihydroxy-5-isopropyl-phenyl)-(4-hydroxymethyl-piperidin-yl)-methanone]
